We go through 7 molecules from patent US4670456A, “4-Aminocarbonylaminomethyl-1-benzylpyrrolidin-2-ones as nootropic agents and as agents for treating cerebral insufficiency” (Boehringer Ingelheim KG, priority 1984, dated 1987).

SMILES strings stand for the structures. Where two headings read alike, the source gives them in different places. A value given as a limit tells only on which side of the number the result lay.

The term IC50 denotes the concentration needed to halve the response being measured. As usually defined, the LD50 is the dose expected to kill half of the subjects tested. Low values mean greater toxicity, high ones lower toxicity.

Series [1] has as its target Muscarine-Cholinergic Receptor (Hippocampus). The series can be described thus: Muscarine-Cholinergic Receptor Binding, hippocampus. Also on record: species or system rat. The procedure:
The IC50 values were calculated in the manner described by Y. C.

For series [2], the system named is mice. Kind of series: Reversal of Scopolamine-Induced Transient Disruption of the Memory of a Passive Avoidance Procedure. The following applies: scopolamine 0.6 mg/kg i.p. Type of series: in vivo. The procedure: 1. […] The animals used were mice, to which scopolamine was administered at a dosage of 0.6 mg/kg, i.p.
Series [3] concerns the target muscarine-cholinergic receptor structures in the rat cortex. Kind of series: Muscarine-Cholinergic Receptor Binding, cortex. On the procedure:
Also as described in Example 8, the compounds tested bound with high affinity to muscarine-cholinergic receptor structures in the rat cortex.
3. Muscarine-Cholinergic Receptor Binding
This test was performed according to the methods described by M. Watson et al., Life Sci., 32, 3001-3011 (1983) and R. Hammer et al., Nature, 283, 90=92 (1980). The IC50 values were calculated in the manner described by Y. C. Cheng et al., Biochemical Pharmacology, 22, 3099-3108 (1973).

The subject of series [4] is mice. Kind of series: Hypoxia Tolerance Test. Type of series: in vivo. The following applies: 96.5% nitrogen, 3.5% oxygen, effective: at most 1-2 treated animals died when 7-8 untreated had died. The procedure: 2. Hypoxia Tolerance Test
In the method employed, mice which are untreated controls or which have been pretreated with the test substance (p.o.) are placed in respective sealed chambers which are filled with a gas mixture consisting of 96.5% nitrogen and 3.5% oxygen. The observer waits until 7-8 of the untreated animals have died. This occurs within 6-7 minutes. If the test substance is effective, at most 1-2 of the treated animals may have died.

The nature of a further series: Acute Toxicity (LD50). The settings on record: in vivo, po; mouse. The procedure:
The acute toxicity of the test compounds was determined in the conventional manner, in the mouse.

Setting [5] is: Hippocampus, read-out: Muscarine Receptor Binding, IC50, Hippocampus.
The mark [6] stands for this setting: printed across the Hippocampus and Cortex columns, ineffective up to the stated concentration, read-out: Muscarine Receptor Binding, IC50, Hippocampus and Cortex (ineffective up to).

`CNC(=O)NCC1CC(=O)N(Cc2ccccc2)C1` (centres unmarked) [Example 7]: in series [1] (setting [5]), the IC50 is over 100 µM. Further, the “Scopolamine-Induced Memory Disruption, % Inhibition” value in the series with mice [2] (100 mg/kg p.o.) stood at 60%.

On to `Cc1ccc(CN2CC(CNC(=O)N3CCN(C)CC3)CC2=O)cc1` (centres unmarked) [Example 13], for which the values for the IC50 in series [1] (setting [5]) and in series [3] were 26 µM and over 10 µM, respectively. Moreover, the “Scopolamine-Induced Memory Disruption, % Inhibition” value in the series with mice [2] (50 mg/kg p.o.) is recorded as 50%.

With `COc1ccc(C(=O)N2CCCC2=O)cc1` [Aniracetam, 1-(p-methoxybenzoyl)-pyrrolidin-2-one, reference compound], the IC50 in series [1] (setting [6]) was over 100 µM. Besides, the entries for the “Scopolamine-Induced Memory Disruption, % Inhibition” value in the series on mice [2] (30 mg/kg p.o.), with mice [2] (50 mg/kg p.o.) and with mice [2] (100 mg/kg p.o.) were 29.7%, 42.6% and 49.3%, respectively.

Consider `NC(=O)CN1CCCC1=O` [Piracetam, 1-carbomyl-methyl-pyrrolidin-2-one, reference compound], for which the IC50 in series [1] (setting [6]) was over 1000 µM. Also, in the series with mice [4] (150 mg/kg p.o.), the “Hypoxia Tolerance” value is “effective”. Besides, the “Scopolamine-Induced Memory Disruption, % Inhibition” value is 42.9% with mice [2] (100 mg/kg p.o.), 53.7% in the series with mice [2] (200 mg/kg p.o.) and 50.0% with mice [2] (500 mg/kg p.o.).

For `CN1CCN(C(=O)NCC2CC(=O)N(Cc3ccccc3)C2)CC1` (centres unmarked) [Example 1, 4-(N-Methylpiperazinyl-carbonylaminomethyl)-1-benzylpyrrolidin-2-one], the LD50 at 336 h in the series “Acute Toxicity (LD50)” was 1500 to 2000 mg/kg. For the same molecule, in the series on mice [2] (10 mg/kg p.o.), the “Scopolamine-Induced Memory Disruption, % Inhibition” value was determined as 43%.

As to `O=C(NCC1CC(=O)N(Cc2ccccc2)C1)Nc1ccc(Cl)cc1` (centres unmarked) [Example 5, 4-(p-Chlorophenylamino-carbonylaminomethyl)-1-benzylpyrrolidin-2-one], in series [1] (setting [5]), the IC50 was 93 µM. For the same molecule, the “Hypoxia Tolerance” value with mice [4] (100 mg/kg p.o.) is recorded as “effective”. Moreover, the LD50 at 336 h in “Acute Toxicity (LD50)” is over 2000 mg/kg. Also, the “Scopolamine-Induced Memory Disruption, % Inhibition” value in the series with mice [2] (5 mg/kg p.o.) amounted to 50%; in the series with mice [2] (10 mg/kg p.o.) it was 70%.

Regarding `CN1CCN(C(=O)N(C)CC2CC(=O)N(Cc3ccccc3)C2)CC1` (centres unmarked) [Example 17], in series [1] (setting [5]), the IC50 is over 100 µM. For the same molecule, the “Scopolamine-Induced Memory Disruption, % Inhibition” value in the series on mice [2] (30 mg/kg p.o.) came to 45%.
